From article PMC3242598, “Phase I study of BIBF 1120 with docetaxel and prednisone in metastatic chemo-naive hormone-refractory prostate cancer patients” (British Journal of Cancer, 2011)

Tested on: patients with metastatic, chemo-naive, hormone-refractory prostate cancer (HRPC)
Experiment: Phase I safety analysis: adverse events graded by CTCAE version 3.0
Format: in vivo, human
Conditions: all courses
Description: On days 2–21 (21-day cycle), patients took an oral dose of BIBF 1120 twice daily. Patients were instructed to swallow BIBF 1120 with water at the same time every day to ensure a dose interval of ∼12 h. On day 2 of treatment cycles (TCs) 1 and 2, patients only took the morning dose of BIBF 1120, omitting the evening dose to allow PK evaluation. All patients were premedicated with oral corticosteroids (dexamethasone 8 mg per os or methylprednisolone 32 mg per os, at 12 h and 1 h before docetaxel infusion) and subsequently took 5 mg prednisone oral BID throughout the trial. On day 1 of each TC, patients received an IV infusion of 75 mg m^−2 docetaxel administered over 1 h.
All patients who received at least one dose of BIBF 1120 or docetaxel were assessed during the safety analysis. Intensity of AEs was graded according to Common Terminology Criteria for Adverse Events (CTCAE) version 3.0. Objective response was defined as a PSA decline ⩾50% from the baseline value over two consecutive courses and/or tumour response according to RECIST criteria ([Therasse et al, 2000]).

[1] = 100 mg BID (n=3) + docetaxel/prednisone, Gr 3/4
[2] = 100 mg BID (n=3) + docetaxel/prednisone, all grades
[3] = 150 mg BID (n=3) + docetaxel/prednisone, Gr 3/4
[4] = 150 mg BID (n=3) + docetaxel/prednisone, all grades
[5] = 200 mg BID (n=3) + docetaxel/prednisone, Gr 3/4
[6] = 200 mg BID (n=3) + docetaxel/prednisone, all grades

COC(=O)c1ccc2c(c1)NC(=O)/C2=C(\Nc1ccc(N(C)C(=O)CN2CCN(C)CC2)cc1)c1ccccc1 [BIBF 1120]
2: Headache: patients with drug-related AE [4] | Nausea: patients with drug-related AE [4] | Diarrhoea: patients with drug-related AE [5] | Diarrhoea: patients with drug-related AE [6]
0: Ageusia: patients with drug-related AE [1] | Alopecia: patients with drug-related AE [1] | Anorexia: patients with drug-related AE [1] | Asthenia: patients with drug-related AE [1] | Constipation: patients with drug-related AE [1] | Diarrhoea: patients with drug-related AE [1] | Dysgeusia: patients with drug-related AE [1] | Dyspepsia: patients with drug-related AE [1] | Dysphonia: patients with drug-related AE [1] | Elevated ALT: patients with drug-related AE [1] | Elevated AST: patients with drug-related AE [1] | Elevated GGT: patients with drug-related AE [1] | Elevated alkaline phosphatase: patients with drug-related AE [1] | Epistasis: patients with drug-related AE [1] | Headache: patients with drug-related AE [1] | Hot flush: patients with drug-related AE [1] | Mucosal inflammation: patients with drug-related AE [1] | Muscle spasm: patients with drug-related AE [1] | Nausea: patients with drug-related AE [1] | Neuropathy: patients with drug-related AE [1] | Pyrexia: patients with drug-related AE [1] | Rash: patients with drug-related AE [1] | Upper abdominal pain: patients with drug-related AE [1] | Vomiting: patients with drug-related AE [1] | Weight decrease: patients with drug-related AE [1] | Ageusia: patients with drug-related AE [2] | Alopecia: patients with drug-related AE [2] | Anorexia: patients with drug-related AE [2] | Asthenia: patients with drug-related AE [2] | Constipation: patients with drug-related AE [2] | Diarrhoea: patients with drug-related AE [2] | Dysgeusia: patients with drug-related AE [2] | Dyspepsia: patients with drug-related AE [2] | Dysphonia: patients with drug-related AE [2] | Elevated ALT: patients with drug-related AE [2] | Elevated AST: patients with drug-related AE [2] | Elevated GGT: patients with drug-related AE [2] | Elevated alkaline phosphatase: patients with drug-related AE [2] | Epistasis: patients with drug-related AE [2] | Headache: patients with drug-related AE [2] | Hot flush: patients with drug-related AE [2] | Mucosal inflammation: patients with drug-related AE [2] | Muscle spasm: patients with drug-related AE [2] | Nausea: patients with drug-related AE [2] | Neuropathy: patients with drug-related AE [2] | Pyrexia: patients with drug-related AE [2] | Rash: patients with drug-related AE [2] | Upper abdominal pain: patients with drug-related AE [2] | Vomiting: patients with drug-related AE [2] | Weight decrease: patients with drug-related AE [2] | Ageusia: patients with drug-related AE [3] | Alopecia: patients with drug-related AE [3] | Anorexia: patients with drug-related AE [3] | Asthenia: patients with drug-related AE [3] | Constipation: patients with drug-related AE [3] | Diarrhoea: patients with drug-related AE [3] | Dysgeusia: patients with drug-related AE [3] | Dyspepsia: patients with drug-related AE [3] | Dysphonia: patients with drug-related AE [3] | Elevated ALT: patients with drug-related AE [3] | Elevated AST: patients with drug-related AE [3] | Elevated GGT: patients with drug-related AE [3] | Elevated alkaline phosphatase: patients with drug-related AE [3] | Epistasis: patients with drug-related AE [3] | Headache: patients with drug-related AE [3] | Hot flush: patients with drug-related AE [3] | Mucosal inflammation: patients with drug-related AE [3] | Muscle spasm: patients with drug-related AE [3] | Nausea: patients with drug-related AE [3] | Neuropathy: patients with drug-related AE [3] | Pyrexia: patients with drug-related AE [3] | Rash: patients with drug-related AE [3] | Upper abdominal pain: patients with drug-related AE [3] | Vomiting: patients with drug-related AE [3] | Weight decrease: patients with drug-related AE [3] | Alopecia: patients with drug-related AE [4] | Elevated ALT: patients with drug-related AE [4] | Elevated AST: patients with drug-related AE [4] | Elevated GGT: patients with drug-related AE [4] | Elevated alkaline phosphatase: patients with drug-related AE [4] | Hot flush: patients with drug-related AE [4] | Mucosal inflammation: patients with drug-related AE [4] | Muscle spasm: patients with drug-related AE [4] | Rash: patients with drug-related AE [4] | Vomiting: patients with drug-related AE [4] | Ageusia: patients with drug-related AE [5] | Alopecia: patients with drug-related AE [5] | Anorexia: patients with drug-related AE [5] | Asthenia: patients with drug-related AE [5] | Constipation: patients with drug-related AE [5] | Dysgeusia: patients with drug-related AE [5] | Dyspepsia: patients with drug-related AE [5] | Dysphonia: patients with drug-related AE [5] | Elevated ALT: patients with drug-related AE [5] | Elevated AST: patients with drug-related AE [5] | Elevated GGT: patients with drug-related AE [5] | Elevated alkaline phosphatase: patients with drug-related AE [5] | Epistasis: patients with drug-related AE [5] | Headache: patients with drug-related AE [5] | Hot flush: patients with drug-related AE [5] | Mucosal inflammation: patients with drug-related AE [5] | Muscle spasm: patients with drug-related AE [5] | Nausea: patients with drug-related AE [5] | Neuropathy: patients with drug-related AE [5] | Pyrexia: patients with drug-related AE [5] | Rash: patients with drug-related AE [5] | Upper abdominal pain: patients with drug-related AE [5] | Vomiting: patients with drug-related AE [5] | Weight decrease: patients with drug-related AE [5] | Ageusia: patients with drug-related AE [6] | Alopecia: patients with drug-related AE [6] | Anorexia: patients with drug-related AE [6] | Constipation: patients with drug-related AE [6] | Dysgeusia: patients with drug-related AE [6]
3: Anorexia: patients with drug-related AE [4] | Asthenia: patients with drug-related AE [4] | Diarrhoea: patients with drug-related AE [4]
1: Ageusia: patients with drug-related AE [4] | Constipation: patients with drug-related AE [4] | Dysgeusia: patients with drug-related AE [4] | Dyspepsia: patients with drug-related AE [4] | Dysphonia: patients with drug-related AE [4] | Epistasis: patients with drug-related AE [4] | Neuropathy: patients with drug-related AE [4] | Pyrexia: patients with drug-related AE [4] | Upper abdominal pain: patients with drug-related AE [4] | Weight decrease: patients with drug-related AE [4] | Asthenia: patients with drug-related AE [6]
